From ChEMBL document CHEMBL1125161, “O'-(epoxyalkyl)tyrosines and (epoxyalkyl)phenylalanine as irreversible inactivators of serine proteases: synthesis and inhibition mechanism” (J Med Chem, 1990)

Tests used:
[1] = target: Chymotrypsinogen A (Bos taurus) (UniProt P00766); experiment: (§1) Inhibitory activity against alpha-chymotrypsin
[2] = target: Chymotrypsinogen A (Bos taurus) (UniProt P00766); experiment: (§2) Ratio of the kinetic constants kH versus ki was reported
[3] = target: Chymotrypsinogen A (Bos taurus, UniProt P00766); experiment: as §1
[4] = target: Chymotrypsinogen A (Bos taurus) (UniProt P00766); experiment: (§3) The ratio (ki + kH)/ki (turnover ratio) was determined using ultimate activity assay
[5] = target: Chymotrypsinogen A (Bos taurus) (UniProt P00766); experiment: (§4) Ratio of the kinetic constants (ki X 10e3) versus Ki was reported
[6] = as §2
[7] = (§5) Inhibitory activity against subtilisin
[8] = as §5; remark: listed apart in the source
[9] = as §3
[10] = as §5; remark: listed apart in the source
[11] = as §4
[12] = test system: Subtilisin (Bacillus); experiment: Ratio of the kinetic constants kH versus ki was reported
[13] = test system: Subtilisin (Bacillus); experiment: Inhibitory activity against subtilisin
[14] = test system: Subtilisin (Bacillus); experiment: The ratio (ki + kH)/ki (turnover ratio) was determined using ultimate activity assay
[15] = test system: Subtilisin (Bacillus); experiment: Ratio of the kinetic constants (ki X 10e3) versus Ki was reported

| Compound | k obs [1] | kH [1] | Ratio [2] | Ki [3] | Ratio [4] | Ratio [5] | other results |
| --- | --- | --- | --- | --- | --- | --- | --- |
| CCOC(=O)[C@H](Cc1ccc(OCCC2CO2)cc1)NC(C)=O (some centres not stated) | – | – | – | – | – | – | Ratio [6]: 1300; k obs [7]: 0.0014 s⁻¹; kH [7]: 11.8 s⁻¹; Ki [8]: 0.0092 s⁻¹; Ratio [9]: 500; Ki [10]: 140 µM; Ratio [11]: 3900 M⁻¹ min⁻¹ |
| O=C(N[C@@H](Cc1ccc(OCC2CO2)cc1)C(=O)Nc1ccc([N+](=O)[O-])cc1)c1ccccc1 (some centres not stated) | 0.00037 s⁻¹ | 0.61 s⁻¹ | 184 | 66 µM | 80 | 3000 M⁻¹ min⁻¹ | – |
| CCOC(=O)[C@H](Cc1ccc(OCC2CO2)cc1)NC(C)=O (some centres not stated) | – | – | – | – | – | – | Ratio [12]: 3900; k obs [13]: 0.0011 s⁻¹; kH [13]: 13.8 s⁻¹; Ratio [14]: 2000; Ratio [15]: 1000 M⁻¹ min⁻¹ |
| O=C(N[C@@H](Cc1ccc(OCCC2CO2)cc1)C(=O)Nc1ccc([N+](=O)[O-])cc1)c1ccccc1 (some centres not stated) | 0.00056 s⁻¹ | 0.83 s⁻¹ | 60 | 59 µM | 20 | 14000 M⁻¹ min⁻¹ | – |

Continued by falling Ki [3], values first:

| k obs [1] | kH [1] | Ratio [2] | Ki [3] | Ratio [4] | Ratio [5] | Compound | other results |
| --- | --- | --- | --- | --- | --- | --- | --- |
| 0.00055 s⁻¹ | 5.2 s⁻¹ | 300 | 380 µM | 68 | 260 M⁻¹ min⁻¹ | CCOC(=O)[C@H](Cc1ccc(OCC2CO2)cc1)NC(=O)c1ccccc1 (some centres not stated) | – |
| 0.00027 s⁻¹ | 0.38 s⁻¹ | 28 | 57 µM | 13 | 14600 M⁻¹ min⁻¹ | CCOC(=O)[C@H](Cc1ccc(OCCC2CO2)cc1)NC(=O)c1ccccc1 (some centres not stated) | – |
| 0.00017 s⁻¹ | 0.15 s⁻¹ | 109 | 35 µM | 26 | 2400 M⁻¹ min⁻¹ | CCOC(=O)[C@H](Cc1ccc(OCCCC2CO2)cc1)NC(=O)c1ccccc1 (some centres not stated) | – |
